Measurements: patent publication US20240350522A1, “HYGROMYCIN A FOR TREATMENT OF DISEASES AND INFECTIONS” (FLIGHTPATH BIOSCIENCES, INC., priority 2021, published 2024)
Values joined by “and” are separate entries in the source; they are usually repeats but may differ in a detail not shown here. Identical values can stand only once. Like-named read-outs stand apart in the source and are kept apart here.

How the values were obtained:
Assay type in all cases: cell-based
[1] = system: Treponema pallidum pallidum Chicago strain; test: Treated treponemes seeded onto no-antibiotic plate, 7 more days, T47 qPCR (treponemicidal activity); details: seeded on no antibiotic plate; for Mean T47 copies/μL, Avg.: average; for Mean T47 copies/μL, Expt. values: replicate wells
[2] = system: Fusobacterium nucleatum (ATCC 25586); test: MBC of Hyg A against F. nucleatum ATCC 25586; details: for MBC: ATCC25586
[3] = system: Streptococcus salivarius ATCC13419; test: MBC of Hyg A against S. salivarius
[4] = system: Treponema pallidum pallidum Chicago strain; test: T. pallidum susceptibility assay, co-culture with Sf1Ep cells, tp0574 (T47) qPCR after 7 days; details: for Mean T47 copies/μL, Avg. / Mean T47 copies/μL, experimental values: 7 days; for Mean T47 copies/μL, Avg.: average of 8 replicates; for Mean T47 copies/μL, experimental values: replicate wells
Treponema denticola = test: MBC of Hyg A against Treponema denticola strains; details: for MBC: Treponema denticola
[5] = system: Porphyromonas gingivalis (ATCC 33277); test: MBC of Hyg A against P. gingivalis
[6] = system: Streptococcus salivarius ATCC13419; test: MIC of Hyg A against S. salivarius
[7] = pre-treated with Hygromycin A 1.92 μg/ml
[8] = pre-treated with Hygromycin A 3.84 μg/ml

MIC:MBC ratio ([2]; F. nucleatum 25586): 1.0
MIC:MBC ratio ([3]; S. salivarius 13419): 10
MIC:MBC ratio (Treponema denticola; T. denticola 33520): 0.2-1.0
MIC:MBC ratio (Treponema denticola; T. denticola 33521): 0.3-1.0
MIC:MBC ratio (Treponema denticola; T. denticola 35404): 0.1-1.0
MIC:MBC ratio (Treponema denticola; T. denticola 35405): 0.2-0.4
MIC:MBC ratio (Treponema denticola; T. denticola ASLM): 0.5-1.0
MIC:MBC ratio (Treponema denticola; T. denticola H1-T): 1.0
MIC:MBC ratio (Treponema denticola; T. denticola OTK): 0.5-1.0
MIC:MBC ratio (Treponema denticola; T. denticola SP44): 0.5-2.0
MIC:MBC ratio (Treponema denticola; T. denticola US Trep): 0.5
ratio of MBC/MIC (Treponema denticola; average for all T. denticola strains): 2.3
MIC ([6]; Streptococcus salivarius ATCC13419, read-out: MIC): 10 µg/mL
MIC ([6]; Streptococcus salivarius, ATCC13419, 96 h, S. salivarius, 5% CO2, extended incubation (4 days), read-out: MIC): 20 µg/mL
MIC ([6]; Streptococcus salivarius, ATCC13419, S. salivarius 13419, experiment 1, read-out: MIC (μg/ml) 1): 10 µg/mL
MIC ([6]; Streptococcus salivarius, ATCC13419, S. salivarius 13419, experiment 2, read-out: MIC (μg/ml) 2): 10 µg/mL
MIC ([6]; Streptococcus salivarius, ATCC13419, S. salivarius, 5% CO2, 24 hours incubation, read-out: MIC): 10 µg/mL
Structure (SMILES): CC(=O)[C@H]1O[C@@H](Oc2ccc(/C=C(\C)C(=O)N[C@@H]3[C@H](O)[C@@H](O)[C@H]4OCO[C@H]4[C@@H]3O)cc2O)[C@@H](O)[C@@H]1O [Hyg A, Hygromycin A]
Mean T47 copies/μL, Avg. [1, 7]: 23 copies/μL
Mean T47 copies/μL, Expt. values [1, 7]: 28 copies/μL and 8 copies/μL and 23 copies/μL and 36 copies/μL and 34 copies/μL
Mean T47 copies/μL, Avg. [1, 8]: 27 copies/μL
Mean T47 copies/μL, Expt. values [1, 8]: 37 copies/μL and 24 copies/μL and 27 copies/μL and 41 copies/μL and 13 copies/μL
MBC ([2]; Fusobacterium nucleatum ATCC 25586, read-out: MBC): ~1 µg/mL
MBC ([2]; Fusobacterium nucleatum, F. nucleatum 25586, experiment 1, read-out: MBC (μg/ml) 1): 1 µg/mL
MBC ([2]; Fusobacterium nucleatum, F. nucleatum 25586, experiment 2, read-out: MBC (μg/ml) 2): 1 µg/mL
MBC ([3]; Streptococcus salivarius ATCC13419, read-out: MBC): 10 µg/mL
MBC ([3]; Streptococcus salivarius, ATCC13419, S. salivarius 13419, experiment 1, read-out: MBC (μg/ml) 1): 10 µg/mL
MBC ([3]; Streptococcus salivarius, ATCC13419, S. salivarius 13419, experiment 2, read-out: MBC (μg/ml) 2): 10 µg/mL
lowest concentration effective against growth (no significant difference to higher concentrations) ([4]; Chicago strain, ANOVA p<0.05): 0.12 µg/mL
Mean T47 copies/μL, Avg. ([4]; Hyg A 0.03 μg/ml): 7184 copies/μL
Mean T47 copies/μL, experimental values ([4]; Hyg A 0.03 μg/ml): 2531 copies/μL and 7304 copies/μL and 8369 copies/μL and 7552 copies/μL and 6189 copies/μL and 9263 copies/μL and 8429 copies/μL and 7834 copies/μL
Mean T47 copies/μL, Avg. ([4]; Hyg A 0.06 μg/ml): 1814 copies/μL
Mean T47 copies/μL, experimental values ([4]; Hyg A 0.06 μg/ml): 1336 copies/μL and 1882 copies/μL and 1716 copies/μL and 2225 copies/μL and 1815 copies/μL and 2044 copies/μL and 2022 copies/μL and 1476 copies/μL
Mean T47 copies/μL, Avg. ([4]; Hyg A 0.12 μg/ml): 674 copies/μL
Mean T47 copies/μL, experimental values ([4]; Hyg A 0.12 μg/ml): 449 copies/μL and 775 copies/μL and 689 copies/μL and 776 copies/μL and 788 copies/μL and 670 copies/μL and 704 copies/μL and 545 copies/μL
Mean T47 copies/μL, Avg. ([4]; Hyg A 0.24 μg/ml): 576 copies/μL
Mean T47 copies/μL, experimental values ([4]; Hyg A 0.24 μg/ml): 360 copies/μL and 447 copies/μL and 513 copies/μL and 890 copies/μL and 775 copies/μL and 636 copies/μL and 565 copies/μL and 424 copies/μL
Mean T47 copies/μL, Avg. ([4]; Hyg A 0.48 μg/ml): 457 copies/μL
Mean T47 copies/μL, experimental values ([4]; Hyg A 0.48 μg/ml): 341 copies/μL and 475 copies/μL and 462 copies/μL and 614 copies/μL and 548 copies/μL and 509 copies/μL and 425 copies/μL and 280 copies/μL
Mean T47 copies/μL, Avg. ([4]; Hyg A 0.96 μg/ml): 397 copies/μL
Mean T47 copies/μL, experimental values ([4]; Hyg A 0.96 μg/ml): 271 copies/μL and 393 copies/μL and 520 copies/μL and 528 copies/μL and 402 copies/μL and 418 copies/μL and 372 copies/μL and 273 copies/μL
Mean T47 copies/μL, Avg. ([4]; Hyg A 1.92 μg/ml): 451 copies/μL
Mean T47 copies/μL, experimental values ([4]; Hyg A 1.92 μg/ml): 301 copies/μL and 422 copies/μL and 453 copies/μL and 556 copies/μL and 585 copies/μL and 546 copies/μL and 464 copies/μL and 279 copies/μL
Mean T47 copies/μL, Avg. ([4]; Hyg A 3.84 μg/ml): 493 copies/μL
Mean T47 copies/μL, experimental values ([4]; Hyg A 3.84 μg/ml): 324 copies/μL and 470 copies/μL and 612 copies/μL and 487 copies/μL and 485 copies/μL and 532 copies/μL and 618 copies/μL and 412 copies/μL
type of effect (bactericidal/bacteriostatic) (Treponema denticola; T. denticola strains, from MBC/MIC ratio): bactericidal
MBC (Treponema denticola; ATCC35404, ATCC 35404, strain most tolerant, read-out: MBC): 5 µg/mL
MBC (Treponema denticola; T. denticola 33520, experiment 1, read-out: MBC (μg/ml) 1): 5 µg/mL
MBC (Treponema denticola; T. denticola 33520, experiment 2, read-out: MBC (μg/ml) 2): 1 µg/mL
MBC (Treponema denticola; T. denticola 33521, experiment 1, read-out: MBC (μg/ml) 1): 0.5 µg/mL
MBC (Treponema denticola; T. denticola 33521, experiment 2, read-out: MBC (μg/ml) 2): 2 µg/mL
MBC (Treponema denticola; T. denticola 35404, experiment 1, read-out: MBC (μg/ml) 1): 5 µg/mL
MBC (Treponema denticola; T. denticola 35404, experiment 2, read-out: MBC (μg/ml) 2): > 5 µg/mL
MBC (Treponema denticola; T. denticola 35405, experiment 1, read-out: MBC (μg/ml) 1): 1 µg/mL
MBC (Treponema denticola; T. denticola 35405, experiment 2, read-out: MBC (μg/ml) 2): 0.5 µg/mL
MBC (Treponema denticola; T. denticola ASLM, experiment 1, read-out: MBC (μg/ml) 1): 1 µg/mL
MBC (Treponema denticola; T. denticola ASLM, experiment 2, read-out: MBC (μg/ml) 2): 1 µg/mL
MBC (Treponema denticola; T. denticola H1-T, experiment 1, read-out: MBC (μg/ml) 1): 0.5 µg/mL
MBC (Treponema denticola; T. denticola H1-T, experiment 2, read-out: MBC (μg/ml) 2): 0.5 µg/mL
MBC (Treponema denticola; T. denticola OTK, experiment 1, read-out: MBC (μg/ml) 1): 1 µg/mL
MBC (Treponema denticola; T. denticola OTK, experiment 2, read-out: MBC (μg/ml) 2): 1 µg/mL
MBC (Treponema denticola; T. denticola SP44, experiment 1, read-out: MBC (μg/ml) 1): 5 µg/mL
MBC (Treponema denticola; T. denticola SP44, experiment 2, read-out: MBC (μg/ml) 2): 2 µg/mL
MBC (Treponema denticola; T. denticola US Trep, experiment 1, read-out: MBC (μg/ml) 1): 1 µg/mL
MBC (Treponema denticola; T. denticola US Trep, experiment 2, read-out: MBC (μg/ml) 2): 1 µg/mL
MBC ([5]; ATCC33277, P. gingivalis 33277, experiment 1, read-out: MBC (μg/ml) 1): > 5 µg/mL
MBC ([5]; ATCC33277, P. gingivalis 33277, experiment 2, read-out: MBC (μg/ml) 2): > 5 µg/mL
